Source: patent publication US10144715B2, “Piperazine derivatives as liver X receptor modulators” (priority 2014, dated 2018)
Read-outs that look alike come from different tables or passages of the source.

Columns and labels:
[1] = molecular target: LXR β LBD protein (Homo sapiens (Human), UniProt P55055); assay: biochemical; type: binding
[2] = molecular target: Gal4 DNA binding domain fused to the LBD of LXRα in HEK293 cells (Homo sapiens (Human), UniProt Q13133); assay: LXR luciferase transcriptional reporter gene assay, agonist mode, LXRα; type: cell-based; details: for EC50: read-out: Cell LXRα EC50
Sequence of Gal4 DNA binding domain fused to the LBD of LXRα in HEK293 cells (Q13133 209-447): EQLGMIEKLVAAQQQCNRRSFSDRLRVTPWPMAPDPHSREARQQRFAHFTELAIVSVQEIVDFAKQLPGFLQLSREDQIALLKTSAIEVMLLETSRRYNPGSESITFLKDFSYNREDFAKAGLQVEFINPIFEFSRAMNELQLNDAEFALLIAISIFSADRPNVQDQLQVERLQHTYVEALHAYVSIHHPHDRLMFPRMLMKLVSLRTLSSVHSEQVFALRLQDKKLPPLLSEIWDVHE

[3] = molecular target: Gal4 DNA binding domain fused to the LBD of LXRβ in HEK293 cells (Homo sapiens (Human), UniProt P55055); assay: cell-based
Sequence of Gal4 DNA binding domain fused to the LBD of LXRβ in HEK293 cells (P55055 222-460 limits assumed): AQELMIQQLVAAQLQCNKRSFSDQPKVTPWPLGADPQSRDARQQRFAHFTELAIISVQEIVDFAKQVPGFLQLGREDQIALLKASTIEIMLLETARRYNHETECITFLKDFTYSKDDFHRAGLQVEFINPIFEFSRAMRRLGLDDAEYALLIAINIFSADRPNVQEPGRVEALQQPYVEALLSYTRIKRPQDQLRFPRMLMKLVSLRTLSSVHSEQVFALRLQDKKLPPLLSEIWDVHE

[4] = molecular target: LXR α LBD protein (Homo sapiens (Human), UniProt Q13133); assay: LXR α radioligand binding assay (SPA, competition with [3H]TO901317); details: read-out: LXRα Binding Ki
Sequence of LXR α LBD protein (Q13133 209-447): as the sequence (Q13133 209-447) above

[5] = agonist mode, read-out: Cell LXRβ EC50
[6] = Biological Test Example 1, read-out: LXRβ Binding Ki
[7] = Biological Test Example 2, agonist mode
[8] = Biological Test Example 2, agonist mode, read-out: Cell LXRβ EC50

Sequence of LXR β LBD protein (P55055 222-460 limits assumed): as the sequence (P55055 222-460 limits assumed) above

| SMILES | Cell LXRα efficacy [2] | EC50 [2] [µM] | EC50 [3] [µM] | Ki ([1]; read-out: LXRβ Binding Ki) [µM] | Cell LXRβ efficacy ([3]; agonist mode) | Cell LXRβ efficacy [3, 7] | other results |
| --- | --- | --- | --- | --- | --- | --- | --- |
| C[C@H](c1ccc(C(F)(F)F)cc1)N1CCN(c2cccc(S(C)(=O)=O)c2)C[C@@H]1c1ccccc1 (single isomer, unassigned) [46-18] | 4598 (45) % | 4.6 | 1.43 | – | – | – | Ki [1]: 0.035 µM; Cell LXRβ efficacy [3]: 1434 (31) % |
| CC(F)(F)[C@H]1CC[C@@H](CN2CCN(c3cccc(S(C)(=O)=O)c3)C[C@@H]2c2ccccc2)CC1 (single isomer, unassigned) [48-28] | – | > 20 | – | 1.34 | 12% | – | EC50 [3, 5]: 6.48 µM |
| CC(F)(F)[C@H]1CC[C@@H](CN2CCN(c3cccc(S(C)(=O)=O)c3)C[C@H]2c2ccccc2)CC1 (single isomer, unassigned) [48-29] | 6290 (43) % | 6.29 | – | 0.378 | 20% | – | EC50 [3, 5]: 1.51 µM |
| CS(=O)(=O)c1cccc(N2CCN(C[C@H]3CC[C@H](C(F)(F)F)CC3)[C@@H](c3ccccc3Cl)C2)c1 (single isomer, unassigned) [48-46] | 1908 (35) % | 1.91 | – | – | – | 35% | Ki [1, 6]: 0.027 µM; EC50 [3, 8]: 0.91 µM |
| CS(=O)(=O)c1cccc(N2CCN(C[C@H]3CC[C@@]4(CC3)CC4(F)F)[C@H](c3ccccc3)C2)c1 (single isomer, unassigned) [48-70] | 9091 (26) % | 9.09 | – | – | – | 58% | Ki [1, 6]: 0.75 µM; EC50 [3, 8]: 3.73 µM |
| CS(=O)(=O)c1cccc(N2CCN(C[C@@H]3CC[C@@H](C(F)(F)F)OC3)[C@@H](c3ccc(F)cc3)C2)c1 (single isomer, unassigned) [49-11] | 2460 (42) % | 2.46 | 0.887 | – | – | 887 (21) % | Ki [1]: 0.214 µM |
| CC(C)[C@@H]1CN(c2ccc(F)c(S(C)(=O)=O)c2)CCN1c1ncc(C#N)c(C(F)(F)F)n1 [7-21, (R)-2-(4-(4-fluoro-3-(methylsulfonyl)phenyl)-2-isopropylpiperazin-1-yl)-4-(trifluoromethyl)pyrimidine-5-carbonitrile] | 549 (86) % | – | 0.152 | 0.009 | 152 (65) % | – | EC50 ([2]; agonist mode): 0.549 µM |
| CCOC(=O)c1cnc(N2CCN(c3ccc(F)c(S(C)(=O)=O)c3)CC2CC(F)(F)F)nc1C (stereo not drawn) [7-22, ethyl 2-(4-(4-fluoro-3-(methylsulfonyl)phenyl)-2-(2,2,2-trifluoroethyl)piperazin-1-yl)-4-methylpyrimidine-5-carboxylate] | 1038 (43) % | – | 0.191 | 0.017 | 191 (31) % | – | EC50 ([2]; agonist mode): 1.04 µM |
| CCOC(=O)c1cnc(N2CCN(c3ccc(F)c(S(C)(=O)=O)c3)C[C@H]2C2CC2)nc1C(F)(F)F [9-4, ethyl (R)-2-(2-cyclopropyl-4-(4-fluoro-3-(methylsulfonyl)phenyl)piperazin-1-yl)-4-(trifluoromethyl)pyrimidine-5-carboxylate] | 1415 (37) % | – | 0.318 | 0.013 | 318 (27) % | – | EC50 ([2]; agonist mode): 1.41 µM |
| CC(C)[C@@H]1CN(c2ccc(F)c(S(C)(=O)=O)c2)CCN1c1nccc(CO)n1 [11-15, (R)-(2-(4-(4-fluoro-3-(methylsulfonyl)phenyl)-2-isopropylpiperazin-1-yl)pyrimidin-4-yl)methanol] | – | – | 2.48 | – | 2479 (33) % | – | Ki [1]: 0.93 µM |
| CC(C)[C@@H]1CN(c2ccc(CO)c(S(C)(=O)=O)c2)CCN1c1nc(C(F)(F)F)c(CO)o1 [11-16, (R)-(2-(4-(4-(hydroxymethyl)-3-(methylsulfonyl)phenyl)-2-isopropylpiperazin-1-yl)-4-(trifluoromethyl)oxazol-5-yl)methanol] | – | – | 0.467 | 0.095 | 467 (76) % | – | – |
| CC(C)[C@@H]1CN(c2ccc(CO)c(S(C)(=O)=O)c2)CCN1c1nc(C(F)(F)F)c(CO)s1 [11-17, (R)-(2-(4-(4-(hydroxymethyl)-3-(methylsulfonyl)phenyl)-2-isopropylpiperazin-1-yl)-4-(trifluoromethyl)thiazol-5-yl)methanol] | – | – | 0.292 | 0.053 | 292 (89) % | – | – |
| CC(C)[C@@H]1CN(c2cccc(S(C)(=O)=O)c2)CCN1c1ccc(C(C)(F)F)cn1 [20-2, (R)-1-(5-(1,1-difluoroethyl)pyridin-2-yl)-2-isopropyl-4-(3-(methylsulfonyl)phenyl)piperazine] | – | – | 0.706 | 0.073 | 706 (43) % | – | – |
| CC(C)[C@@H]1CN(c2ccc(F)c(S(C)(=O)=O)c2)CCN1c1ccc(C(C)(O)C(F)(F)F)cn1 (stereo partly drawn) [20-3, 1,1,1-trifluoro-2-(6-((R)-4-(4-fluoro-3-(methylsulfonyl)phenyl)-2-isopropylpiperazin-1-yl)pyridin-3-yl)propan-2-ol] | – | – | 0.443 | 0.052 | 443 (48) % | – | – |
| CC1(C)CCC(O)(CN2CCN(c3cccc(S(C)(=O)=O)c3)C[C@H]2c2ccccc2)CC1 [53-2, (R)-4,4-dimethyl-1-((4-(3-(methylsulfonyl)phenyl)-2-phenylpiperazin-1-yl)methyl)cyclohexan-1-ol] | – | – | 2.08 | – | – | 2082 (56) % | Ki [1, 6]: 0.609 µM |
| CC(C)[C@@H]1CN(c2ccc(F)c(S(C)(=O)=O)c2)CCN1c1nc2cccnc2s1 [Cpd No 7-57, (R)-2-(4-(4-fluoro-3-(methylsulfonyl)phenyl)-2-isopropylpiperazin-1-yl)thiazolo[5,4-b]pyridine] | – | – | 0.044 | 0.012 | – | – | Cell LXRβ efficacy [3]: 44 (90) % |
| CC(C)[C@@H]1CN(c2ccc(CO)c(S(C)(=O)=O)c2)CCN1c1ccc(C(F)(F)F)nc1 [Cpd No 20-4, (R)-(4-(3-isopropyl-4-(6-(trifluoromethyl)pyridin-3-yl)piperazin-1-yl)-2-(methylsulfonyl)phenyl)methanol] | – | – | 0.028 | 0.02 | 28 (105) % | – | – |
| Cc1nc(N2CCN(c3cccc(S(C)(=O)=O)c3)C[C@H]2C(C)C)ccc1C(F)(F)F [Cpd No 37-2, (R)-2-isopropyl-1-(6-methyl-5-(trifluoromethyl)pyridin-2-yl)-4-(3-(methylsulfonyl)phenyl)piperazine] | – | – | 0.049 | 0.002 | – | – | Cell LXRβ efficacy [3]: 49 (98) % |
| CC(C)[C@H]1CN(c2ccc(C#N)c(S(C)(=O)=O)c2)CCN1C[C@H]1CC[C@@H](C(F)(F)F)CC1 [Cpd No 50-1, 4-((S)-3-isopropyl-4-(((1s,4R)-4-(trifluoromethyl)cyclohexyl)methyl)piperazin-1-yl)-2-(methylsulfonyl)benzonitrile] | 181 (100) % | 0.181 | – | – | – | 88% | Ki [4]: 0.107 µM |
| CC1(C)CCC(O)(CN2CCN(c3cccc(S(C)(=O)=O)c3)C[C@@H]2c2ccccc2)CC1 [Cpd No 53-1, (S)-4,4-dimethyl-1-((4-(3-(methylsulfonyl)phenyl)-2-phenylpiperazin-1-yl)methyl)cyclohexan-1-ol] | – | – | 1.03 | – | – | 1030 (53) % | Ki [1, 6]: 0.121 µM |
